{"source": "patent US20110008302A1", "about": "“Compositions and methods for immortalizing cells and screening for anti-cancer agents” (priority 2007, published 2011)", "key": {"MEFs [1]": {"system": "MEFs", "assay": "Stimulation of serum-starved MEFs with growth factors or serum (Ezh2, Ndy1, miR-101 levels)", "assay_type": "cell-based, mouse", "procedure": "MEFs were transfected with control siRNA and stimulated with serum (10%) for 1, 4, 12 and 18 hours. (upper) Nuclear extracts were probed with antibody specific for Ezh2 and for CREB, levels of which served as loading control. (lower) Ndy1 and Ezh2 mRNA levels were measured with real time RT-PCR; GAPDH mRNA levels were used as internal control. Data are expressed as mean±SD.\nSerum starved MEFs were stimulated with each of FGF-2 (20 ng/ml), IGF-1 (20 ng/ml), PDGF (20 ng/ml), serum (10%), VEGF (20 ng/ml), EGF (20 ng/ml) or TNFα (50 ng/ml). Nuclear extracts were probed with antibody specific for Ezh2 and for CREB, levels of which served as loading control.\nData are expressed as mean±SD.\nMEFs transfected with control siRNA were stimulated with FGF-2 for 1, 4, 12 or 18 hours. (upper) Nuclear extracts were probed with antibody specific for Ezh2. CREB levels served as loading control. (middle) Ndy1 and Ezh2 mRNA were measured with real time RT-PCR; GAPDH mRNA levels were used as internal control. Data are expressed as mean±SD. (lower) miR-101 levels were measured with real time RT-PCR; U6 small nuclear RNA levels were used as internal control. Data are expressed as mean±SD.\nFor stimulation with FGF-2 (Cell signalling, catalog number 8910), IGF-1 (R&D Systems, catalog number 791-MG), PDGF (Cell signalling, catalog number 9909), VEGF (R&D systems, catalog number 493-MV), EGF (R&D systems, catalog number 236-EG), TNFα (Cell Signalling, catalog number 2169), cells were serum starved for 16 hours and growth factors were added at a final concentration of 20 ng/ml each, for 24 hours.\nTo identify a pathway regulating Ezh2 expression via the Ndy1/miR-101 axis, serum-starved MEFs were stimulated with FGF-2, IGF-1, PDGF, EGF, VEGF, TNFα or serum and were examined for expression of Ezh2, Ndy1 and miR-101 before and 24 hours after stimulation. […] This was confirmed with analyses in which FGF-2 was used to stimulate serum-starved MEFs transfected with a control siRNA or siRNA for Ndy1 (FIG. 36)."}, "MEFs [2]": {"system": "MEFs", "assay": "FGF-2-induced proliferation and migration of MEFs (MTT, transwell filter, wound healing)", "assay_type": "cell-based, mouse", "text": "FGF-2 stimulation induces both proliferation and migration in various cell types. To determine the role of Ndy1 in FGF-2-driven proliferation and migration, FGF-2 was used to stimulate serum-starved MEFs which were transfected with control RNA, siRNA for Ndy1, miR-101 or with siRNA for Ndy1+miR-101.\nTo determine cell number, the 3-[4,5-dimethylthiazol-2-yl]-2,5-[…] bromide (MTT, Invitrogen, catalog number M6494) assay was used as described in Polytarchou, C et al., 2005 J. Biol. Chem. 280: 40428-35. Cells were seeded at 2×10^4 cells/well in 24-well tissue culture plates. Twenty-four hours later, cells were serum-starved in medium without FBS for 16 h. Culture medium was replaced with fresh medium containing FGF-2 or control carrier, and the number of cells was determined. Results were confirmed by direct counting of cells under the microscope, using a standard hemocytometer.\nMigration assays were performed using 24-well microchemotaxis chambers (Costar) with uncoated polycarbonate membranes (pore size 8 μm). Briefly, cells were harvested and resuspended at 5×10^4 cells/0.15 ml in DMEM containing 0.25% BSA. The bottom chamber of each transwell unit contained 0.6 ml of DMEM supplemented with 0.25% BSA and FGF-2 (20 ng/ml) or carrier as a control. The plates were incubated for 6 h at 37° C. and the filters were fixed with 4% paraformaldehyde in PBS and stained with 0.1% crystal violet solution. The cells that migrated through the filter were counted using a grid and an Optech microscope at 20× magnification.\nTo assay wound healing, cells were plated on 6-well plates, incubated in DMEM containing 10% FBS until confluence and were serum starved for 16 hours. Wounds were introduced to the confluent cell monolayer with a plastic pipette tip. Wells were washed three times to remove floating cells, and were cultured in DMEM without FBS, in the presence or absence of FGF-2 (20 ng/ml). Twelve and twenty four hours later, the wound area was photographed using a Nikon Phase Contrast-2 ELWD 0.3 Diaphot TMD inverted microscope with a 10× objective and a Spot charge-coupled-device camera (Diagnostic Instruments)."}, "Ndy1": {"system": "Ndy1", "assay": "siRNA knock down in MEFs (Western blot, real time PCR of p16Ink4a, p19Arf, Ezh2, miR-101)", "assay_type": "cell-based, mouse", "procedure": "At a time point four days after transfection cells were analyzed by Western blotting and total mRNA was collected and analyzed by real-time PCR with primers specific for p16^Ink4a and p19^Arf and primers specific for the long and short forms of Ndy1. (n=3)*p<0.05\n(§1) MEFs overexpressing Ndy1 or Ndy2 and MEFs in which Ndy1 was knocked down with siRNA (1433-[…]-1454, SEQ ID NO: 1), were monitored for senescence by light microscopy and β-galactosidase staining and by cell counting at each passage. Transfection of siRNA was carried out using Lipofectamine 2000 (Invitrogen; Carlsbad, Calif.). Knockdown of Ndy1 was confirmed by Western blotting and real time RTPCR.\nFor siRNA. MEFs transfected with Ndy1 (1433-[…]-1454; SEQ ID NO: 51) or control siRNA (Dharmacon) were plated at 10^5 cells per 6 cm dish and 3-4 days later were harvested and analyzed (Pfau, R., et al. (2008) Proc Natl Acad Sci USA 105, 1907-12, incorporated herein by reference in its entirety). MEFs were transfected with the help of Lipofectamine 2000 (Invitrogen). To specifically knock down the short form of Ndy1 the following siRNA were used: 5′-[…]-′3 (SEQ ID NO: 52) which specifically targets the exon1 of the v2 isoform of Ndy1 (NM_013910). siRNAs for Ezh2 (a mix of two siRNAs form Applied Biosystems, #AM16708 siID #157427 and #157426) and Bmi-1 (Santa Cruz Biotechnologies, # sc-29815) were used in a final concentration of 80 nM."}, "MEFs [3]": {"system": "MEFs", "assay": "Senescence of MEFs after Ndy1 siRNA (cell counting, β-galactosidase staining)", "assay_type": "cell-based, mouse", "procedure": "as §1\nMEFs transfected with Ndy1 (1433-[…]-1454) or control siRNA (Dharmacon; Chicago, Ill.) were plated in triplicate at 10^5 cells per well in 6 well dishes, and three days later they were counted, re-transfected and replated at 10^5 cells per well. At day 6, cells were photographed, counted and stained for the β-galactosidase (Pierce #9860; Rockford, Ill.). β-galactosidase staining of the cells infected with the retroviral constructs and the siRNA-treated cells was performed using X-gal and a β-galactosidase staining kit (Pierce #9860).\nTo determine whether endogenous Ndy1 is a physiological regulator of senescence, passage 3 wild type MEFs and passage-8 MEFs overexpressing Ndy1 were transfected with Ndy1 or control siRNA. […] The transfected cells were passaged twice, and cell proliferation was monitored by counting the cells at each passage. Cell morphology and β-galactosidase staining were recorded after the second passage (FIG. 10 panel B, FIG. 10 panel C and FIG. 10 panel D). […]"}, "[4]": {"system": "TCCSUP, WIDR, SKOV3, T24, NCI522", "assay": "Ndy1 siRNA in cancer cell lines expressing high levels of FGF-2", "assay_type": "cell-based, human", "details": "five of eight high FGF-2 cell lines, 48 hours after transfection", "procedure": "RNAs were transfected with Lipofectamine 2000 (Invitrogen, catalog number 11668-027) in MEFs and DharmaFect 3 (Dharmacon, catalog number T-2003-03) in cancer cell lines, according to the manufacturers' instructions (80 nM final concentration).\nThese eight high FGF-2 expressing cell lines were then transfected with siRNA for Ndy1 or a control siRNA. Nuclear extracts of these cells, collected 48 hours after the transfection, were probed with antibodies specific for each of Ndy1, Ezh2 and CREB. RNA isolated from these cells was analyzed by real time RT-PCR for abundance of microRNA miR-101. […] The five cell lines were obtained from patients having each of transitional cell carcinoma, lung cancer, colon cancer, ovarian cancer, and bladder cancer."}, "[5]": {"system": "Human Umbilical cord Vein Endothelial Cells", "assay": "In vitro tube formation assay", "assay_type": "cell-based", "details": "HUVECs, FGF-2 20 ng/ml, 6 h", "procedure": "HUVECs were transduced with a myc.Ezh2 expression construct, or with the empty vector (EV) and were subsequently transduced with either shRNA for Ndy1 or with a lentiviral-based control shRNA. (upper-first row) Tube formation on Cultrex-RGF-BME without FGF-2. (upper-second row) Tube formation on Cultrex-RGF-BME in the presence of 20 ng/ml FGF-2. (upper-third row) Tube formation on reduced-growth factor-Matrigel in the presence of 5 μM of the angiogenesis inhibitor sulphoraphane. (lower) Quantitation of tube formation was performed with the Angioquant software. Relative tube formation was calculated as the ratio of total capillary tube length in cells with or without FGF-2 normalized to total capillary tube length of EV cells without FGF-2 and set to 1 for total capillary tube length of EV cells without FGF-2. Data are expressed as mean±SD.\nHUVECs were then transduced with a pBabe-based retrovirus construct of myc-Ezh2. Cells transduced with the empty pBabe vector (EV) were used as a negative control. […]\nThe in vitro tube formation assay was performed using the In Vitro Angiogenesis Assay Kit (Trevigen, catalog number 3470-096-K). […] After 6 h of incubation at 37° C., the medium was removed, the cells were fixed and stained with Calcein AM, and the total length of capillary tubes was measured in the total area of the wells using image analysis software (Angioquant). […]"}, "[6]": {"details": "MEFs cultured under standard conditions"}, "[7]": {"details": "MEFs transfected with control siRNA, FGF-2 for 1, 4, 12 or 18 hours"}, "[8]": {"details": "serum-starved MEFs, 24 hours after stimulation"}, "[9]": {"details": "serum-starved MEFs transfected with control RNA"}}, "data": [{"substance": "1433-GUGGACUCACCUUACCGAAUU-1454 [Ndy1 siRNA]", "values": [{"measurement": "serum-stimulated Ezh2 upregulation", "setting": "MEFs [1]; MEFs transfected with siRNA for Ndy1, serum stimulation", "value": "not affected"}, {"measurement": "FGF-2 driven proliferation", "setting": "MEFs [2]; MEFs overexpressing myc.Ezh2", "value": "no effect"}, {"measurement": "directional and random FGF-2 driven cell motility", "setting": "MEFs [2]; MEFs overexpressing myc.Ezh2", "value": "remained unaffected"}, {"measurement": "FGF-2-induced Ezh2 upregulation", "setting": "MEFs [2]; MEFs, 48 hour time point under FGF-2", "value": "sufficient to block"}, {"measurement": "FGF-2 effect on proliferation and migration", "setting": "MEFs [2]; serum-starved MEFs stimulated with FGF-2", "value": "greatly limited"}, {"measurement": "expression of Ezh2", "setting": "Ndy1; [6]", "value": "down-regulates, slightly"}, {"measurement": "expression of miR-101", "setting": "Ndy1; [6]", "value": "does not affect"}, {"measurement": "p16Ink4a (Western blot)", "setting": "Ndy1; passage 2 MEFs, transient knock down, 4 days", "value": "relatively slight upregulation"}, {"measurement": "increase of expression of p16Ink4a", "setting": "Ndy1; passage 3 MEFs, four days after transfection", "value": "about 2.3 times"}, {"measurement": "expression of Ezh2", "setting": "Ndy1; passage 3 MEFs, four days after transfection (FIG. 17 panel B)", "value": "decreases"}, {"measurement": "endogenous and exogenous Ndy1 (Western blotting)", "setting": "Ndy1; passage 3 wild type MEFs and passage-8 MEFs overexpressing Ndy1", "value": "downregulation"}, {"measurement": "senescence", "setting": "MEFs [3]", "value": "promote senescence"}, {"measurement": "Ezh2", "setting": "[4]", "value": "downregulated"}, {"measurement": "expression of miR-101", "setting": "[4]", "value": "upregulating"}]}, {"substance": "FGF-2: Fibroblast growth factor-2 (FGF-2) or basic fibroblast growth factor", "values": [{"measurement": "Ezh2", "setting": "MEFs [1]; [7]", "value": "upregulates"}, {"measurement": "Ndy1", "setting": "MEFs [1]; [7]", "value": "upregulates"}, {"measurement": "miR-101", "setting": "MEFs [1]; [7]", "value": "down-regulates"}, {"measurement": "expression of Ndy1", "setting": "MEFs [1]; [8]", "value": "promoted"}, {"measurement": "level at which Ezh2 expression is induced", "setting": "MEFs [1]; [8]", "value": "primarily at the protein level"}, {"measurement": "miR-101", "setting": "MEFs [1]; [8]", "value": "downregulating"}, {"measurement": "Ezh2 expression", "setting": "MEFs [1]; serum-starved MEFs, 24 hours after stimulation, 20 ng/ml (serum 10%)", "value": "significantly upregulated"}, {"measurement": "directional and random migration", "setting": "MEFs [2]; [9]", "value": "increase"}, {"measurement": "proliferation rate", "setting": "MEFs [2]; [9]", "value": "increase"}, {"measurement": "total length of the capillary tubes formed", "setting": "[5]", "value": "increase"}]}]}
